Values joined by “and” are separate entries in the source; they are usually repeats but may differ in a detail not shown here. Equal entries are not always repeated.
Columns and labels:
[1] = system: female rats; assay: Local anesthesia efficacy test, prick test after one s.c. injection; type: in vivo, Sprague Dawley rats; conditions: 0.25 mg/kg s.c.
Method: (§1) In order to evaluate administration of local anesthesia in a sensitivity test in female rats a pilot- and an efficacy study was performed.
(§2) Sprauge Dawley rats (females, 10 weeks) were acquired from Janvier Europe. Rats were housed in the animal facility, Medicon Village, Lund, Sweden. The rats were kept at 12 h light/dark cycles in polystyrene cages (type III cages, 2-3 rats per cage) comprising wood shavings. The rats were fed with standard rodent diet and water ad libitum. The rats were acclimatized for approximately one week before initiation of the experiment. The rats were identified by a marking on the tail with a permanent marker day 1.
Formulation of reference anesthesia Ropivacaine, was prepared in the same way as for the pilot study.
The rats were shaved at the back and habituated to the experimental environment for 30 minutes prior to the testing. The sensitivity test was performed at 6 different time points within 6 hours after administration of the test item (30 min, 1 h, 2 h, 3 h, 4 h, 5 h) by touching each rat with a needle. The rat's reaction in the form of wrinkling of the skin was evaluated by ocular inspection, giving each monitored response a value of 0 (no response) or 1 (response).

[2] = system: sciatic nerve; assay: In vivo test 3: sensitivity test (tweezer), motor and sensor block after s.c. injection close to the sciatic nerve; design: species or system Wistar albino rats
Method: Male Wistar albino rats, weighing 200-250 g, obtained from SYLAB Experimental Animals Laboratory, were used in the experiments. The animals were kept in a 12 hour light-12 hour dark light period under standard conditions and fed with standard pellet water (ad libitum). All studies were carried out in accordance with international ethical rules, without abusing animal rights.
Formulations used were the same as in Example 2, with additional storage. The formulations were stored for 7 months at different temperatures. At first, the formulations were stored in the freezer for 6 months. Thereafter there were alterations in temperature storage; the formulations were iteratively stored in room temperature and in the fridge before use.
The compositions were administrated s. c. in one single injection at time 0. The compositions were administrated to a position in close proximity to the sciatic nerve. • Group 1: Ropivacaine 7.5 mg/ml, 1.1-1.2 ml. Total=at least 8.25 mg ropivacaine. This composition is commercial ropivacaine (Ropivacaina Inibsa, injectable solution). • Group 2: Ropivacaine 4 mg/ml, 2 ml, pH 5 (Test 1). Total=8 mg ropivacaine.
The sensitivity test was performed at 9 different time points within 9 hours after administration of the test item (1 h, […], 2 h, 3 h, 4 h, 5 h, 6 h, 7 h, 8 h and 9 h) by touching each rat with a tweezer. The rat's reaction in the form of wrinkling of the skin was evaluated by ocular inspection, giving each monitored response a value of 0 (no response), 0.5 (low response) or 1 (response).

[3] = system: female rats; assay: Local anesthesia pilot study, prick (sensitivity) test after one s.c. injection; type: in vivo, Sprague Dawley rats; conditions: data not shown
Method: as §1, §2
Formulation of reference anesthesia ropivacaine, was prepared such that the pH of the composition and the concentration and dose of ropivacaine where essentially identical to the compositions of the invention. The concentration of Ropivacaine was 5 mg/ml in the formulation and was administered at a dose of 1 mg/kg bodyweight in 2 animals, 0.25 mg/kg bodyweight in 2 animals; and placebo PBS (phosphate buffered saline) in 2 animals. The vehicle and reference anesthesia were administrated s. c. (subcutaneous) in one single injection at time 0.
The rats were shaved at the back and habituated to the experimental environment for 30 minutes prior to the testing. […] The rat's reaction in the form of wrinkling of the skin was evaluated by ocular inspection.

[4] = Impurity analysis: 2,6-dimethylaniline (Impurity H) by UPLC-UV and UPLC-UV-MS; type: physicochemical
Method: Qualitative LC-analyzes were performed on samples from the stage in the formulation procedure after ropivacaine was added. LC analyzes with ultraviolet light (UV) detection were performed on a Thermo Fischer Scientific Vanquish UPLC instrument employing a Waters BEH C18 1.7 um 2.1*150 mm chromatographic column at 0.3 mL/min flow rate and otherwise method according to European pharmacopoeia 11.1, monograph 01/2017:2335 ‘Ropivacaine Hydrochloride Monohydrate’.
LC analyzes with UV and MS detection were carried out on a Waters Acquity UPLC Quattro Micro MS-instrument with electrospray ionisation (ESI) in positive-negative switching mode. The method used was based on monograph 01/2017:2335 as above, however, the mobile phase was changed to a MS-compatible one; instead of phosphate buffer 0.1% NH3/MeCN with gradient elution was used.
One of the impurities of ropivacaine specified in the pharmacopeial monograph Eu Pharm 11.1, 01/2017:2335 as Impurity H, the carcinogenic 2,6-dimethylaniline, was analyzed in prepared formulations by LC-UV and LC-UV-MS against 2,6-dimethylaniline reference material.
Specified Impurity H of ropivacaine of Ph. Eur. 11.1, 01/2017:2335-2,6-dimethylaniline—was not detected (<0.05 area-%), neither in the ropivacaine reference standard nor in the formulated samples of ropivacaine of microwave heated triethanolamine, as analyzed by UPLC-UV (240 nm) and UPLC-UV-MS (Full scan m/z 50-800). As such, it was concluded that 2,6-dimethylaniline is not produced in the treatment of a formulation of the present disclosure.

[5] = individual rat, score 0, 0.5 or 1, 0 h
[6] = individual rat, score 0, 0.5 or 1, 1 h
[7] = individual rat, score 0, 0.5 or 1, 2 h
[8] = individual rat, score 0, 0.5 or 1, 3 h
[9] = individual rat, score 0, 0.5 or 1, 4 h
[10] = individual rat, score 0, 0.5 or 1, 5 h
[11] = individual rat, score 0, 0.5 or 1, 6 h
[12] = individual rat, score 0, 0.5 or 1, 7 h

Impurity H (2,6-dimethylaniline), UPLC-UV-MS ([4]; Full scan m/z 50-800): Not detected
Impurity H (2,6-dimethylaniline), UPLC-UV ([4]; UV 240 nm): Not detected
2,6-dimethylaniline (Impurity H) level ([4]; not detected, UPLC-UV (240 nm) and UPLC-UV-MS): < 0.05 area-%
SMILES: CCCN1CCCC[C@H]1C(=O)Nc1c(C)cccc1C [Ropivacaine, ropivacaine]
Average value of first response ([1]; group of 3 rats): 1.8 h
Prick test response, 0.5 h ([1]; individual rat, 0 = no response (anesthesia), 1 = response, 0.5 mg/ml, 0.5 h, 0.25 mg/kg): 0 (2×) and 1
Prick test response, 1 h ([1]; individual rat, 0 = no response (anesthesia), 1 = response, 1 h, 0.25 mg/kg): 0 (2×) and 1
Prick test response, 2 h ([1]; individual rat, 0 = no response (anesthesia), 1 = response, 2 h, 0.25 mg/kg): 1 (2×) and 0
Prick test response, 3 h ([1]; individual rat, 0 = no response (anesthesia), 1 = response, 3 h): 1
Prick test response, 4 h ([1]; individual rat, 0 = no response (anesthesia), 1 = response, 4 h, 0.25 mg/kg): 1 (2×) and 0
Prick test response, 5 h ([1]; individual rat, 0 = no response (anesthesia), 1 = response, 5 h): 1
Loss Motor block, average ([2]; group average): 3.3 h
loss of Sensor block, average ([2]; group average): 4.3 h
Loss Motor block ([2]; individual rat): 4 h (4×) and 3 h (2×)
loss of Sensor block ([2]; individual rat): 6 h (2×) and 3 h (2×) and 4 h (2×)
Motor Block, test time 0 h [2, 5]: 1 (5×) and 0.5
Sensor Block, test time 0 h [2, 5]: 1
Motor Block, test time 1 h [2, 6]: 1 (5×) and 0.5
Sensor Block, test time 1 h [2, 6]: 1
Motor Block, test time 2 h [2, 7]: 1 (4×) and 0.5 (2×)
Sensor Block, test time 2 h [2, 7]: 1
Motor Block, test time 3 h [2, 8]: 0.5 and 0 (3×) and 1 (2×)
Sensor Block, test time 3 h [2, 8]: 1 (4×) and 0 (2×)
Motor Block, test time 4 h [2, 9]: 0
Sensor Block, test time 4 h [2, 9]: 1 and 0 (4×) and 0.5
Motor Block, test time 5 h [2, 10]: 0
Sensor Block, test time 5 h [2, 10]: 1 and 0 (2×) and 0.5
Motor Block, test time 6 h [2, 11]: 0
Sensor Block, test time 6 h [2, 11]: 0
Motor Block, test time 7 h [2, 12]: 0
Sensor Block, test time 7 h [2, 12]: 0
duration of the anesthetic effect ([3]; 0.25 mg/kg bodyweight s.c.): 2 h
duration of the anesthetic effect ([3]; 1 mg/kg bodyweight s.c.): 5 h
